# Counter-ions that a name gives are not always drawn. Like-named read-outs stand apart in the source and are kept apart here.
# Tests used:
# human forearm skin [1] = assay: Procedure B primary irritation study in humans (Finn Chambers, 24 hours, 0-4 erythema score)
# From the text: Procedure B Primary Irritation Study in Human- Alternative Method Finn Chambers (Epitest, Ltd OY, Tuusula, Finland) for epicutaneous testing of irritation on Scanpor adhesive (Norgesplaster A/S, Norway; 10 chambers) were used to test the primary irritancy of the test compound or composition. The formulations were introduced into the Finn Chambers using the following procedures. The adhesive covering was removed and the filter paper dots were placed into the chambers to be used. A disposable pasteur pipette was used to add one drop of formulation onto the filter paper. The pipette was then discarded. This was repeated for each formulation, up to 10 formulations. The subjects' forearm was lowered onto the scanpor adhesive and pressure was applied to insure adhesion. Two strips of 2" paper tape were overlapped over the scanpor adhesive. This remained in place for 24 hours, at which time it was removed and scored immediately using the table below. […]
# Procedure B was used to evaluate the irritancy of physiologically active amines with or without complexation or solvation as described in more detail below.
# human forearm skin [2] = details: in vivo
# Procedure: Patches of the saturated film 2 cm^2 in area were placed by test subjects on their own forearm skin and held in place by clear, nonocclusive adhesive (Tegaderm), allowing constant observation of the skin under the patch. After 17 hours, skin damage was evaluated by visual observation. The damage was ranked using the following scale: 1 (no discoloration, no erythema); 2 (pink coloration, slight erythema); 3 (reddening, moderate erythema, no burning); 4 (reddening and burning, moderate erythema); 5 (erythema and edema, with or without burning); 6 (severe erythema, edema, and burning); and 7 (severe erythema, severe burning, blistering, and edema).
# A physiologically active amine in the free base form can be evaluated for skin irritancy by Procedures A, B, or C, set out above. Alternatively, irritation can be determined by other conventional patch test involving maintaining the amine in contact with the skin for 24 hours, and then observing the skin. The results are evaluated using the scales provided for Procedures A, B, or C as defined herein.
# skin [3] = test system: skin
# [4] = Transdermal flux rate through human skin in vitro (flow-through diffusion cell)
# From the text: A surgically-removed human skin source was used for all in vitro diffusion cell tests. […] Briefly, the full-thickness skin was immersed in distilled water heated to 60±1 degrees C for 45 seconds. The epidermal-stratum corneum layers were then peeled from the dermis. The epidermis-stratum corneum layers were then excised with a cork borer into circular disks 1.4 cm in diameter.
# The skin was then mounted onto a Teflon flow-through diffusion cell. […] The skin sample of the donor portion of the diffusion cell was secured in place into the receptor cell. The flow-through cell consisted of a Teflon receptor cell with an exposed skin surface area of 0.32 cm^2 and a receptor cell volume of 0.13 mi. Sink conditions were maintained by pumping phosphate-buffered saline under the skin in the receptor cell at about 3 ml/hr. Thus, the receptor volume was replaced about 23 times per hour. These cells were then mounted on a water-jacketedbracket which maintained the receptor solution in the cells at 33 degrees C. The receptor media which was pumped under the cells was degassed in order to reduce air bubble formation under the skin. […]
# Liquid scintillation fluor was added directly to the sample vials so that they could be measured with minimal liquid transfers and handling. The sample vials were then analyzed with appropriate quench correction techniques by liquid scintillation spectroscopy. […]
# skin [5] = details: WO 86/00806; cited from earlier work
# skin [6] = details: WO 86/00806; cited from earlier work; remark: listed apart in the source
# [7] = Procedure: Given this information and the empirically determined transdermal flux rate of the material, the required patch size in centimeters^2 for effective dosing can be determined. […] The estimated patch size is determined by dividing the calculated therapeutically effective dose rate by the in vitro transdermal flux rate.
# The estimated patch size for such a composition can be calculated as described in detail above. […] Since water soluble salt forms of physiologically active amines are not at all soluble in nonpolar, nonvolatile solvents, these solvents cannot be used to increase their transdermal flux rate.
# The transdermal patch sizes required to deliver an effective dosage of a selected group of physiologically active amines were evaluated as described above. […] DEET, however, is not an appropriate solvent for extended transdermal drug delivery because it is not a United States Pharmacopeia accepted ingredient.
# [8] = cited from earlier work
# skin [9] = details: oral form; Physician's Desk Reference; cited from earlier work
# rabbit back skin = assay: Procedure C primary skin irritation tests in animals; details: 24 hour exposure, scored 24 and 72 hours
# Procedure: Procedure C Primary Skin Irritation Tests in Animals Tests were performed on young adult albino rabbits (New Zealand White rabbits). Six rabbits were used for each test. The rabbits were prepared for the test by clipping the hair from the backs of the rabbits and any rabbit showing skin damage from the clipping was rejected from the testing. The application sites for the transdermal drug delivery (TDD) patch was intact skin. As an example, a formulation containing the test composition was incorporated into Poroplastic® transdermal patches. One TDD patch containing the test material was applied to one side of the rabbit's back. […] A one (1) inch square gauze patch, two single layers thick, was used to cover the test TDD patch. The animals were immobilized with patches secured in place by adhesive tape. The entire trunk of the animal was then wrapped with an impervious material for the twenty-four (24) hour exposure period. After 24 hours of exposure the patches were removed and the resulting reactions evaluated on the basis of the scoring system indicated below. Observations were again made at the end of a total of 72 hours (48 hours after the first reading). […]
# After 24 hours of exposure the patches were removed and the resulting reactions evaluated on the basis of scores as described above.
# [10] = Procedure B, human forearm, 24 hours, score 0-4
compound,measurement,setting,value
CN(C)CCC(c1ccc(Cl)cc1)c1ccccn1 (stereo not drawn) [chlorpheniramine maleate],Erythema Rating,"human forearm skin [1]; Procedure B, human forearm, 24 hours, score 0-4, listed as Chlorpheniramine maleate (1:1 molar ratio)",0.0
same,Irritation Rating (1-7),human forearm skin [2],1.0
same,skin irritation (in words),skin [3]; procedure not specified,minimally irritating
CCCCC/C=C\C/C=C\CCCCCCCC(=O)O [Linoleic acid],Erythema Rating,human forearm skin [1]; [10],0
CN(C)CCOC(c1ccccc1)c1ccccc1 [diphenhydramine hydrochloride],transdermal flux / skin penetration (in words),[4]; human skin,do not permeate the skin with a therapeutically effective flux rate
CN1CCC(=C2c3ccccc3CCc3cccnc32)CC1 [azatadine],dermal penetration (in words),skin [5],good dermal penetration
same,dermal irritation or sensitization (in words),skin [6],no dermal irritation or sensitization
CCCCCCCC/C=C\CCCCCCCC(=O)OCCC [propyl oleate],Erythema Rating,human forearm skin [1]; [10],0
C=CCCCCCCCCC(=O)O [Undecylenic acid],Erythema Rating,human forearm skin [1]; in vivo,0
CCCCCCCC/C=C\CCCCCCCC(=O)OC(C)C [isopropyl oleate],Erythema Rating,human forearm skin [1]; [10],0
CN(C)CC[C@@H](c1ccc(Br)cc1)c1ccccn1 [dexbrompheniramine],cal dose rate,[7],98 µg/h
same,effective blood concentration,[8]; in vivo,5.3 ng/mL
CN(C)CCOC(c1ccccc1)c1ccccc1 [diphenhydramine],Transdermal flux rate,"[4]; Table 2, applicant's compositions",55.8 μg/cm2/hr
CCCCCCCC/C=C\CCCCCCCC(=O)O [Oleic acid],Erythema Rating,human forearm skin [1]; in vivo,0
"COc1ccc(CCN(C)CCCC(C#N)(c2ccc(OC)c(OC)c2)C(C)C)cc1OC (stereo not drawn) [oral form of Varapamil, Varapamil]",adverse skin reactions (in words),skin [9],"arthralgia and rash, exanthema, hair loss, hyperkeratosis, macules, StevenJohnsons syndrome, and erythema multiforme"
CN(C)CCC(c1ccc(Cl)cc1)c1ccccn1 (stereo not drawn) [chlorpheniramine],Erythema Rating,human forearm skin [1]; [10],4.0
same,estimated flux needed to achieve therapeutic blood levels,[7],90 µg/h
"CN(C)CCC(c1ccc(Cl)cc1)c1ccccn1 (stereo not drawn) [Chlorpheniramine Salicylate (1:1 M), Chlorpheniramine Salicylate]",Erythema Rating,"human forearm skin [1]; Procedure B, human forearm, 24 hours, score 0-4, listed as Chlorpheniramine salicylate (1:1 molar ratio)",0.0
same,Irritation Rating (1-7),human forearm skin [2],1.0
OCCOCCN1CCN(C(c2ccccc2)c2ccc(Cl)cc2)CC1 (stereo not drawn) [hydroxyzine],irritation rating,human forearm skin [1]; in vivo,≤ 2
CN1CCCC1c1cccnc1 (stereo not drawn) [nicotine],cal dose rate,"[7]; Table 2, clearance times effective blood level",936 µg/h
same,primary irritation score,rabbit back skin,less than 2
same,Clearance,[8]; Table 2,1200 mL/min
same,effective blood concentration,[8]; Table 2,13 ng/mL
CN(C)CCC(c1ccc(Br)cc1)c1ccccn1 (stereo not drawn) [brompheniramine maleate],skin irritation (in words),skin [3]; in vivo,minimally irritating
CCCCCCCCCCCCCCCCCC(=O)OCCCC [butyl stearate],Erythema Rating,human forearm skin [1]; in vivo,0
CCCCCCCCCCCCCC(=O)OC(C)C [isopropyl myristate],Erythema Rating,human forearm skin [1]; in vivo,0.3

# — patent US5422118A, “Transdermal administration of amines with minimal irritation and high transdermal flux rate” (priority 1992, dated 1995)
